Data reported in patent US9688654B2, “Compounds inhibiting leucine-rich repeat kinase enzyme activity” (Merck Sharp & Dohme Corp., priority 2013, dated 2017).

What was measured:
[1] = molecular target: T1, LRRK2 (G2019S mutation, GST-LRRK2 (amino acids 970-2527)) (Homo sapiens, UniProt Q5S007, G2019S); assay: LRRK2 Km ATP LanthaScreen Assay; format: biochemical; settings: mean IC50
T1 construct: GST-LRRK2 (amino acids 970-2527); GST (N); purchased Life Technologies Corporation
Description: Unless otherwise noted, all LRRK2 IC50 data presented in tables refers to the LRRK2 Km ATP LanthaScreen™ Assay that is described in the Biological Assay section.
(§1) The data presented for the 5 mM and Km ATP LanthaScreen™ Assay represents mean IC50 values based on several test results and may have reasonable. deviations depending on the specific conditions and reagents used. Reagents for the LRRK2 5 mM and Km ATP LanthaScreen™ Assay were purchased from Life Technologies Corporation.
• a) 400 nl of a 1:2.15 serial dilution of test compound (98 μM top assay concentration) is spotted via Labcyte Echo to certain wells in a 384 well black, untreated plate. Control wells contain 400 nl of either DMSO or 400 nl of a known inhibitor in DMSO. • b) 10 μl of a 2.5 nM LRRK2 (G2019S mutation, GST-LRRK2 (amino acids 970-2527)) enzyme solution in 1× assay buffer (50 mM Tris pH 8.5, 10 mM MgCl2, 0.01% Brij-35, 1.0 mM EGTA, 2 mM DTT, 0.05 mM NaVO4) is added to all wells. • c) A 30 minute room temperature incubation is followed by addition of 10 μl […]) After a 35 minute room temperature incubation, 20 μl of TR-FRET Dilution Buffer (Invitrogen PV3756B) containing 4 nM Tb-labeled anti-phospho LRRKtide antibody and 20 mM EDTA is added to all wells. • e) Plates are incubated at room temperature for 1 hour and read on an Envision™ multi-mode plate reader with LanthaScreen™ settings. Results are analysed using Assay Data Analyzer. […] Results are analysed using Assay Data Analyzer.

[2] = molecular target: T1, LRRK2 (G2019S mutation, GST-LRRK2 (amino acids 970-2527)); assay: LRRK2 5 mM ATP LanthaScreen Assay; format: biochemical; settings: mean IC50
Description: as §1
LRRK2 5 mM ATP LanthaScreen™ Assay
• a) 400 nl of a 1:2.15 serial dilution of test compound (98 μM top assay concentration) is spotted via Labcyte Echo to certain wells in a 384 well black, untreated plate. Control wells contain 400 nl of either DMSO or 400 nl of a known inhibitor in DMSO. • b) 10 μl of a 2.5 nM LRRK2 (G2019S mutation, GST-LRRK2 (amino acids 970-2527)) enzyme solution in 1× assay buffer (50 mM Tris pH 8.5, 10 mM MgCl2, 0.01% Brij-35, 1.0 mM EGTA, 2 mM DTT, 0.05 mM NaVO4) is added to all wells. • c) A 30 minute room temperature incubation is followed by addition of 10 μl of 800 nM fluorescein labeled LRRKtide peptide substrate and 10 mM ATP solution in 1× assay buffer to all wells. • d) After a 35 minute room temperature incubation, 20 μl of TR-FRET Dilution Buffer (Invitrogen PV3756B) containing 4 nM Tb-labeled anti-phospho LRRKtide antibody and 20 mM EDTA is added to all wells. • e) Plates are incubated at room temperature for 1 hour and read on an Envision™ multi-mode plate reader with LanthaScreen™ settings. Results are analysed using Assay Data Analyzer. […] Results are analysed using Assay Data Analyzer.

T1 sequence (Q5S007 970-2527 G2019S): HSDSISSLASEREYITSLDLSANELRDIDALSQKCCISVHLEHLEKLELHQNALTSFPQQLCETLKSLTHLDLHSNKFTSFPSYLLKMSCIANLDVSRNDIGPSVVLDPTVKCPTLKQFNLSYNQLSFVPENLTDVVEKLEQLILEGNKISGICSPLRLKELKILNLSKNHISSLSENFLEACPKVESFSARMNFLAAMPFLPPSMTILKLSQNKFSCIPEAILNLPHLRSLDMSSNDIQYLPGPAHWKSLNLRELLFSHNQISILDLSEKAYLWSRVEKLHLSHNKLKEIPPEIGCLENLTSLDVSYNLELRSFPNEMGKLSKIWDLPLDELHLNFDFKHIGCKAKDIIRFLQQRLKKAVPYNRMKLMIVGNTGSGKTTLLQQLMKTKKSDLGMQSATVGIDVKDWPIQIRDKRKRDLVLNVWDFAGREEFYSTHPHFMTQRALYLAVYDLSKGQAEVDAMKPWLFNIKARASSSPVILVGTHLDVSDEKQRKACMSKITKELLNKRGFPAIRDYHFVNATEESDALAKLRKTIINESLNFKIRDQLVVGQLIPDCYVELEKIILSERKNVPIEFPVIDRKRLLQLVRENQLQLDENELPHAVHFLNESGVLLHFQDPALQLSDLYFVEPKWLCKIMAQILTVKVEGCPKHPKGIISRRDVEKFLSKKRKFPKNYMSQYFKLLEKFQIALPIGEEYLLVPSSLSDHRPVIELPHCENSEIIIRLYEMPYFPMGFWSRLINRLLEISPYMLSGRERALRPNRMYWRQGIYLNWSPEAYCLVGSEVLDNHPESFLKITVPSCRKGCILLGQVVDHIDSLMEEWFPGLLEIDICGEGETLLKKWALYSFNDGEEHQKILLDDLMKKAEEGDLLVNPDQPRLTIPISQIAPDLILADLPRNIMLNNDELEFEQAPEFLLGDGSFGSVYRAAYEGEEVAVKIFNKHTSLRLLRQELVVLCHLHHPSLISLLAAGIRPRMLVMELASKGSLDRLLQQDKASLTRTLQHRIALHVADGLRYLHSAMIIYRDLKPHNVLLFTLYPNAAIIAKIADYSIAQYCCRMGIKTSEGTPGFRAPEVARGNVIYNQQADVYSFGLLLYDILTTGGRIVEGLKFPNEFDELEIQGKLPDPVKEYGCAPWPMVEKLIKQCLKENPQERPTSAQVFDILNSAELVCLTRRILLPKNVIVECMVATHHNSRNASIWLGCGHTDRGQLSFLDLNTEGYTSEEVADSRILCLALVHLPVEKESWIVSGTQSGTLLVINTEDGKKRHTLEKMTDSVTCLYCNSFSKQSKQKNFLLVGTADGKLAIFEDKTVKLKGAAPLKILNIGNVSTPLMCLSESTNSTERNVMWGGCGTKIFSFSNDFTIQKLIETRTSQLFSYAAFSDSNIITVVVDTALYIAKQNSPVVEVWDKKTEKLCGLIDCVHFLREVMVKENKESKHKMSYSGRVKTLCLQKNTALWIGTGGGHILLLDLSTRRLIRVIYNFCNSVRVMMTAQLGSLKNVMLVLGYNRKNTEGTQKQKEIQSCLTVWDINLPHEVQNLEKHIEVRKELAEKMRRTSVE

| IC50 [1] [nM] | IC50 [2] [nM] | SMILES |
| --- | --- | --- |
| 12 | 300 | c1cc(-c2n[nH]c3ccc(OC4CC4)cc23)cc(N2CCN(C3CC3)CC2)n1 [Example 26] |
| 16 | 225 | c1cc(-c2n[nH]c3ccc(OC4CC4)cc23)cc(N2CCC2)n1 [Example 9] |
| 12 | 297 | CCc1nnc2n1CCN(c1cc(-c3n[nH]c4ccc(OC5CC5)cc34)ccn1)C2 [Example 23] |
